Test results published in paper PMC10577883, “Design and Optimization of Novel Competitive, Non-peptidic, SARS-CoV-2 M^pro Inhibitors” (ACS Medicinal Chemistry Letters, 2023).
Several values for one entry are separate records, joined by “and”; a condition that tells them apart may be missing. Equal values may be shown once.

Columns and labels:
[1] = tested on: SARS-CoV-2-Nluc reporter virus; assay: microbe, parasite or virus in culture; format: cell-based; conditions: for EC50: Severe acute respiratory syndrome coronavirus 2, VeroE6/TMPRSS2 cells, parentheses denote 95% confidence intervals
[2] = Mouse liver microsome stability assay
Description: Metabolic Stability Assay
(§1) Liver Microsome Stability Assay Protocol
(§2) Human liver microsomes (HLMs, 20 mg/mL), CD-1 mouse liver microsomes (MLMs, 20 mg/mL), Sprague Dawley
(§3) rat liver microsomes (RLMs, 20 mg/mL) were purchased from Xenotech. NADPH was purchased from Sigma-
(§4) Aldrich and prepared in 10 mM stock solutions of distilled H2O (InvitrogenTM UltraPureTM). Verapamil and
(§5) diphenhydramine were both purchased from Sigma-Aldrich and served as positive controls for LM stability assays.
(§6) Test compounds and positive controls were initially dissolved in DMSO to make 10 mM stock solutions. Sample
(§7) solutions were then further diluted in 100% MeCN to 500 μM. Next, the reactions were prepared by mixing human
(§8) or mouse liver microsomes (55 μL) with potassium phosphate buffer (100 mM, 928 μL) in 1.5 mL Eppendorf tubes.
(§9) The test compounds (6.6 μL of 500 μM solution) were subsequently added to the suspensions, and the reaction
(§10) mixtures were incubated at 37 °C for 5 min. Afterward, the liver microsome reactions were initiated with 110 μL
(§11) of 10 mM NADPH and further incubated at 37 °C for the designated time course of the study. This procedure
(§12) provided experiments with a final volume of 1100 μL (0.6% organic solvent content) and a final test compound
(§13) concentration of 3 μM. Aliquots (100 μL) were removed from each reaction mixture in duplicate at 0, 5, 10, 15,
(§14) and 30 min time intervals and quenched with 100 μL of cold internal standard solution (ISTD, 2 μM
(§15) 7-ethoxy-d 5-coumarin in MeOH or MeCN). Quenched aliquots were then centrifuged at 12,500 g for 5-10 min, and
(§16) the resulting supernatants were withdrawn and placed in LC-MS vials to be analyzed by LC-MS/MS (Agilent
(§17) G6460C QQQ MS coupled with an Infinity II 1260 HPLC). Each test compound was run in tandem with positive and
(§18) negative control experiments for quality assurance. Positive control reactions were conducted at a final volume
(§19) of 550 μL for a single run of each time point. Lastly, the negative control experiment was conducted with test
(§20) compounds and liver microsomes in the absence of NADPH (150 μL) and analyzed at the 30 min time point.
(§21) Data Analysis. Each data point was analyzed in triplicate using in-between blank washes to avoid carry over and
(§22) to equilibrate the column for the subsequent runs. Averages of these triplicates for individual compounds at each
(§23) time point were then normalized to the data at 0 min, representing 100% test compound remaining or 0%
(§24) metabolism. Half-lives (t 1/2) were calculated by plotting ln of % test compound remaining versus time and
(§25) performing linear regression to determine slope.
(§26) Instrumentation and LC-MS/MS Method Development
(§27) LC-MS/MS analyses were conducted on an Agilent 1260 Infinity II HPLC equipped with an Agilent G6460 triple
(§28) quadrupole mass spectrometer (Agilent Technologies, USA). Reverse-phase HPLC separation for each compound
(§29) m) column maintained at 40 °C. The mobile phase used during analyses consisted of either MeOH-H2O (0.1% FA)
(§30) or MeCN-H2O (0.1% FA) at a flow rate of 0.5 mL/min. Each method was developed in the presence of the internal
(§31) standard (ISTD), 7-ethoxy-d 5-coumarin. Precursor and product ion detection was performed with Agilent Jet
(§32) Stream electrospray positive ionization (ESI+) in multiple reaction monitoring (MRM) mode. All MRM transitions,
(§33) MS conditions were as follows: dwell time of 100 ms; gas flow of 10 L/min; nebulizer pressure of 45 psi; delta EMV
(§34) of 200 V. Lastly, all acquired data was processed using Agilent 6460 Quantitative Analysis software.

SARS-CoV-2 Mpro (3CLpro) = SARS-CoV-2 Mpro (3CLpro) (Severe acute respiratory syndrome coronavirus 2, UniProt P0DTD1); assay: SARS-CoV-2 recombinant protease enzymatic assay (FRET); format: biochemical; conditions: for IC50: recombinant Mpro, FRET peptide substrate
[3] = Human liver microsome stability assay
Description: Metabolic Stability Assay
as §1, §2, §3, §4, §5, §6, §7, §8, §9, §10, §11, §12, §13, §14, §15, §16, §17, §18, §19, §20, §21, §22, §23, §24, §25, §26, §27, §28, §29, §30, §31, §32, §33, §34

[4] = Rat liver microsome stability assay; conditions: 37 °C
Description: Metabolic Stability Assay
as §1, §2, §3, §4, §5, §6, §7, §8, §9, §10, §11, §12, §13, §14, §15, §16, §17, §18, §19, §20, §21, §22, §23, §24, §25, §26, §27, §28, §29, §30, §31, §32, §33, §34

in vitro = conditions: chlorocebus sabaeus
SARS-CoV-2 Mpro = conditions: cited from earlier work; for IC50: literature value

O=c1[nH]cccc1-c1cn(-c2cc(Cl)cc(OCc3nccn3C(F)F)c2)c(=O)n(-c2cccnc2)c1=O [Compound 41]
EC50 [1]: 6.76 µM
MLM percentage remaining after 30 min ([2]; 3 μM, 37 °C, 30 min): 22.8% and 22.79%
half-life at 3 µM ([2]; CD-1, mouse, microsomes): 14.7 min
remaining at 5 min, 3 µM ([2]; CD-1, mouse, microsomes): 63.8%
remaining at 10 min, 3 µM ([2]; CD-1, mouse, microsomes): 50.2%
remaining at 0.25 h, 3 µM ([2]; CD-1, mouse, microsomes): 37.7%
IC50 (SARS-CoV-2 Mpro (3CLpro)): 13 nM
HLM percentage remaining after 30 min ([3]; 3 μM, 37 °C, 30 min): 70.7%
half-life at 3 µM ([3]; human, microsomes): > 30 min
remaining at 5 min, 3 µM ([3]; human, microsomes): 94.5%
remaining at 10 min, 3 µM ([3]; human, microsomes): 84.4%
remaining at 0.25 h, 3 µM ([3]; human, microsomes): 66.4%
RLM percentage remaining after 30 min ([4]; 3 μM, 30 min): 90.2% and 90.17%
remaining at 5 min, 3 µM ([4]; Sprague-Dawley, rat, microsomes, RLM Rel % remaining, 5 min): 97.6%
remaining at 10 min, 3 µM ([4]; Sprague-Dawley, rat, microsomes, RLM Rel % remaining, 10 min): 95.2%
remaining at 0.25 h, 3 µM ([4]; Sprague-Dawley, rat, microsomes, RLM Rel % remaining, 15 min): 93.9%
half-life at 3 µM ([4]; Sprague-Dawley, rat, microsomes, RLM t1/2, 3 μM, unit inferred): > 30 min
CC50 (in vitro): > 100 µM

O=c1[nH]cccc1-c1cn(-c2cc(Cl)cc(Cl)c2)c(=O)n(-c2cccnc2)c1=O [Compound 6]
EC50 range in words [1]: sub-micromolar
EC50 [1]: 0.5 µM
IC50 (SARS-CoV-2 Mpro (3CLpro)): 276 nM and 280 nM
CC50 (in vitro): > 100 µM

Cc1scnc1COc1cc(Cl)cc(-n2cc(-c3ccc(=O)[nH]c3)c(=O)n(-c3cccnc3)c2=O)c1 [Compound 51]
EC50 [1]: > 20 µM
IC50 (SARS-CoV-2 Mpro (3CLpro)): 120 nM
CC50 (in vitro): > 100 µM

Cc1nc(C)c(COc2cc(Cl)cc(-n3cc(-c4ccc[nH]c4=O)c(=O)n(-c4cccnc4)c3=O)c2)s1 [Compound 40]
EC50 [1]: 10.2 µM
IC50 (SARS-CoV-2 Mpro (3CLpro)): 16 nM
CC50 (in vitro): > 100 µM

N#Cc1ccccc1-c1cc(-c2cccc(Cl)c2)c(=O)n(-c2cccnc2)c1 [Compound 2]
IC50 (SARS-CoV-2 Mpro): 9.99 µM
improvement in potency over 1 (SARS-CoV-2 Mpro; relative to perampanel 1): 10 fold

O=c1[nH]cccc1-c1cn(-c2cc(Cl)cc(OCc3scnc3C(F)(F)F)c2)c(=O)n(-c2cccnc2)c1=O [Compound 37]
EC50 [1]: 2.4 µM
IC50 (SARS-CoV-2 Mpro (3CLpro)): 43 nM
CC50 (in vitro): > 100 µM

N#Cc1ccccc1-c1cc(-c2ccccn2)cn(-c2ccccc2)c1=O [Perampanel, perampanel]
IC50 (SARS-CoV-2 Mpro): 100 to 200 µM

Cn1cc(COc2cc(Cl)cc(-n3cc(-c4ccc[nH]c4=O)c(=O)n(-c4cccnc4)c3=O)c2)c(C(F)(F)F)n1 [Compound 44]
EC50 [1]: 3.3 µM
IC50 range in words (SARS-CoV-2 Mpro (3CLpro)): single-digit nanomolar range
IC50 (SARS-CoV-2 Mpro (3CLpro)): 5.6 nM
CC50 (in vitro): > 100 µM
